Several values for one entry are separate records, joined by “and”; a condition that tells them apart may be missing. Equal entries are not always repeated.
Tests used:
ABUTH [1] = assay: Pre-emergence herbicidal action against ABUTH; assay type: in vivo, Abutilon theophrasti
In short: (§1)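 Seeds sown in sandy loam, soil-covered; compound sprayed on soil surface pre-emergence. Application: WP/EC, 600–800 l/ha, 0.2% wetting agent. Readout: visual % damage at 3 weeks.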

ALOMY [2] = assay: Pre-emergence herbicidal action against ALOMY; assay type: in vivo, Alopecurus myosuroides; details: Alopecurus myosuroides, 504 h, pre-emergence
In short: as §1

AMARE [3] = assay: Pre-emergence herbicidal action against AMARE; assay type: in vivo, Amaranthus retroflexus
In short: as §1

AVEFA = assay: Pre-emergence herbicidal action against AVEFA; assay type: in vivo, Avena fatua; details: Avena fatua, 504 h; 80 g/ha, pre-emergence
In short: as §1

ECHCG [4] = assay: Pre-emergence herbicidal action against ECHCG; assay type: in vivo, Echinochloa crus-galli
In short: as §1

MATIN [5] = assay: Pre-emergence herbicidal action against MATIN; assay type: in vivo, Matricaria inodora
In short: as §1

PHBPU [6] = assay: Pre-emergence herbicidal action against PHBPU; assay type: in vivo, Pharbitis purpurea; details: Ipomoea purpurea, 504 h, dosage 80 g/ha
In short: as §1

POLCO = assay: Pre-emergence herbicidal action against POLCO; assay type: in vivo, Polygonum convolvulus; details: Fallopia convolvulus, 504 h
In short: as §1

SETVI [7] = assay: Pre-emergence herbicidal action against SETVI; assay type: in vivo, Setaria viridis; details: Setaria viridis, 504 h; for pest or weed control at 80 g/ha: dosage 80 g/ha
In short: as §1

VERPE [8] = assay: Pre-emergence herbicidal action against VERPE; assay type: in vivo, Veronica persica; details: Veronica persica, 504 h, dosage 80 g/ha
In short: as §1

VIOTR [9] = assay: Pre-emergence herbicidal action against VIOTR; assay type: in vivo, Viola tricolor
In short: as §1

DIGSA [10] = assay: Pre-emergence herbicidal action against DIGSA; assay type: in vivo, Digitaria sanguinalis
In short: as §1

ABUTH [11] = assay: Post-emergence herbicidal action against ABUTH; assay type: in vivo, Abutilon theophrasti; details: visual assessment about 3 weeks after treatment vs untreated controls
In short: (§2)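 Percent herbicidal action is rated by eye about 3 weeks after treatment against untreated controls, where 100% means dead plants and 0% means like controls. Plants in sandy loam are sprayed on green parts at the one-leaf stage with aqueous WP or EC preparations at 600 to 800 l/ha plus 0.2% wetting agent.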

ALOMY [12] = assay: Post-emergence herbicidal action against ALOMY; assay type: in vivo, Alopecurus myosuroides; details: Alopecurus myosuroides, 504 h, dosage 20 g/ha, visual assessment about 3 weeks after treatment vs untreated controls
In short: as §2

AMARE [13] = assay: Post-emergence herbicidal action against AMARE; assay type: in vivo, Amaranthus retroflexus; details: 20 g/ha, visual assessment about 3 weeks after treatment, 100% = plants have died, 0% = like control plants
In short: as §2

ECHCG [14] = assay: Post-emergence herbicidal action against ECHCG; assay type: in vivo, Echinochloa crus-galli; details: Echinochloa crus-galli, 504 h, dosage 20 g/ha
In short: as §2

MATIN [15] = assay: Post-emergence herbicidal action against MATIN; assay type: in vivo, Matricaria inodora; details: Tripleurospermum inodorum, 504 h
In short: as §2

PHBPU [16] = assay: Post-emergence herbicidal action against PHBPU; assay type: in vivo, Pharbitis purpurea; details: Ipomoea purpurea, 504 h
In short: as §2

SETVI [17] = assay: Post-emergence herbicidal action against SETVI; assay type: in vivo, Setaria viridis
In short: as §2

VERPE [18] = assay: Post-emergence herbicidal action against VERPE; assay type: in vivo, Veronica persica; details: Veronica persica, 504 h, 20 g/ha
In short: as §2

VIOTR [19] = assay: Post-emergence herbicidal action against VIOTR; assay type: in vivo, Viola tricolor; details: Viola tricolor, 504 h
In short: as §2

DIGSA [20] = assay: Post-emergence herbicidal action against DIGSA; assay type: in vivo, Digitaria sanguinalis; details: Digitaria sanguinalis, 504 h
In short: as §2

STEME = assay: Pre-emergence herbicidal action against STEME; assay type: in vivo, Stellaria media
From the text: Seeds of monocotyledonous and dicotyledonous weed plants and crop plants are laid out in sandy loam soil in wood-fiber pots and covered with soil. The compounds of the invention, formulated in the form of wettable powders (WP) or as emulsion concentrates (EC), are then applied to the surface of the covering soil in the form of an aqueous suspension or emulsion at a water application rate equivalent to 600 to 800 l/ha, with addition of 0.2% wetting agent. After the treatment, the pots are placed in a greenhouse and kept under good growth conditions for the trial plants. The damage to the test plants is scored visually after a test period of 3 weeks by comparison with untreated controls (herbicidal activity in percent (%): 100% activity=the plants have died, 0% activity=like control plants). […] The tables below illustrate, in an illustrative manner, the post-emergence herbicidal action of the compounds of the invention, the herbicidal activity being stated in percent.

[21] = Abutilon theophrasti, 504 h, 80 g/ha, scored visually after 3 weeks vs untreated controls (100% = plants have died, 0% = like control plants)
[22] = 80 g/ha, scored visually after 3 weeks vs untreated controls (100% = plants have died, 0% = like control plants)
[23] = Amaranthus retroflexus, 504 h, 20 g/ha, scored visually after 3 weeks vs untreated controls, 100% = plants have died, 0% = like control plants
[24] = Amaranthus retroflexus, 504 h, 80 g/ha, scored visually after 3 weeks vs untreated controls, 100% = plants have died, 0% = like control plants
[25] = Digitaria sanguinalis, 504 h, dosage 80 g/ha
[26] = Abutilon theophrasti, 504 h, dosage 20 g/ha

CCNC(=O)c1c(C(F)F)ccc(C(=O)Nc2nnnn2CC)c1CC [Example 2-278]
pest or weed control at 80 g/ha (ABUTH [1]; [21]): 100%
pest or weed control at 20 g/ha (ABUTH [1]; Abutilon theophrasti, 504 h, dosage 20 g/ha, scored visually after 3 weeks vs untreated controls, 100% = plants have died, 0% = like control plants, read-out: Pre-emergence action against ABUTH (herbicidal activity in percent)): 100%
pest or weed control at 80 g/ha (ALOMY [2]; [22]): 90%
pest or weed control at 20 g/ha (ALOMY [2]; 20 g/ha, scored visually after 3 weeks, 100% = plants have died, 0% = like control plants): 80%
pest or weed control at 20 g/ha (AMARE [3]; [23]): 100%
pest or weed control at 80 g/ha (AMARE [3]; [24]): 100%
pest or weed control at 80 g/ha (AVEFA): 90%
pest or weed control at 80 g/ha (ECHCG [4]; Echinochloa crus-galli, 504 h, 80 g/ha): 100%
pest or weed control at 20 g/ha (MATIN [5]; Tripleurospermum inodorum, 504 h, dosage 20 g/ha): 100%
pest or weed control at 80 g/ha (MATIN [5]; Tripleurospermum inodorum, 504 h, dosage 80 g/ha): 100%
pest or weed control at 80 g/ha (PHBPU [6]): 90%
pest or weed control at 20 g/ha (POLCO; dosage 20 g/ha): 80%
pest or weed control at 80 g/ha (POLCO; dosage 80 g/ha): 80%
pest or weed control at 80 g/ha (SETVI [7]): 100%
pest or weed control at 80 g/ha (VERPE [8]): 100%
pest or weed control at 20 g/ha (VIOTR [9]; Viola tricolor, 504 h, dosage 20 g/ha): 100%
pest or weed control at 80 g/ha (VIOTR [9]; Viola tricolor, 504 h, dosage 80 g/ha): 100%
pest or weed control at 20 g/ha (DIGSA [10]; Digitaria sanguinalis, 504 h, dosage 20 g/ha): 100%
pest or weed control at 80 g/ha (DIGSA [10]; [25]): 100%
pest or weed control at 5 g/ha (ABUTH [11]; Abutilon theophrasti, 504 h, dosage 5 g/ha): 80%
pest or weed control at 20 g/ha (ABUTH [11]; [26]): 90%
pest or weed control at 20 g/ha (ALOMY [12]): 80%
pest or weed control at 20 g/ha (AMARE [13]; Amaranthus retroflexus, 504 h): 100%
pest or weed control at 20 g/ha (ECHCG [14]): 90%
pest or weed control at 5 g/ha (MATIN [15]; dosage 5 g/ha): 90%
pest or weed control at 20 g/ha (MATIN [15]; dosage 20 g/ha): 90%
pest or weed control at 5 g/ha (PHBPU [16]; dosage 5 g/ha): 80%
pest or weed control at 20 g/ha (PHBPU [16]; dosage 20 g/ha): 90%
pest or weed control at 5 g/ha (SETVI [17]; Setaria viridis, 504 h, dosage 5 g/ha): 80%
pest or weed control at 20 g/ha (SETVI [17]; Setaria viridis, 504 h, dosage 20 g/ha): 90%
pest or weed control at 20 g/ha (VERPE [18]): 100%
pest or weed control at 5 g/ha (VIOTR [19]; 5 g/ha): 90%
pest or weed control at 20 g/ha (VIOTR [19]; 20 g/ha): 90%
pest or weed control at 5 g/ha (DIGSA [20]; 5 g/ha): 90%
pest or weed control at 20 g/ha (DIGSA [20]; 20 g/ha): 90%

CCc1c(C(=O)Nc2ncnn2C)ccc(C(F)(F)F)c1C(=O)NC1CC1 [Example 4-212]
Pre-emergence action against ABUTH (herbicidal activity) (ABUTH [1]; [22]): 90%
Pre-emergence action against AMARE in % (AMARE [3]; 20 g/ha, scored visually after 3 weeks vs untreated controls, 100% = plants have died, 0% = like control plants): 90%
Pre-emergence action against AMARE in % (AMARE [3]; [22]): 90%
Pre-emergence action against ECHCG in % (ECHCG [4]; 80 g/ha): 80%
Pre-emergence action against MATIN in % (MATIN [5]; dosage 20 g/ha): 80%
Pre-emergence action against MATIN in % (MATIN [5]; dosage 80 g/ha): 80% and 90%
Pre-emergence action against STEME in % (STEME; dosage 80 g/ha): 90%
Pre-emergence action against VIOTR in % (VIOTR [9]; dosage 80 g/ha): 90%
Pre-emergence action against DIGSA in % (DIGSA [10]; dosage 20 g/ha): 80%
Pre-emergence action against DIGSA in % (DIGSA [10]; dosage 80 g/ha): 90%
Post-emergence action against ABUTH in % (ABUTH [11]; dosage 20 g/ha): 80%
Post-emergence action at 20 g/ha against AMARE in % (AMARE [13]): 80%
Post-emergence action against SETVI in % (SETVI [17]; dosage 20 g/ha): 80%

CC(=O)NC(=O)c1c(C(F)(F)F)ccc(C(=O)Nc2nnc(C)o2)c1Cl [Example 6-252]
pest or weed control at 80 g/ha (ABUTH [1]; [21]): 80%
pest or weed control at 320 g/ha (ABUTH [1]; Abutilon theophrasti, 504 h, Dosage: 320 g/ha, scored visually after 3 weeks, 100% = plants have died, 0% = like control plants): 90%
pest or weed control at 20 g/ha (AMARE [3]; [23]): 80%
pest or weed control at 80 g/ha (AMARE [3]; [24]): 90%
pest or weed control at 320 g/ha (AMARE [3]; Amaranthus retroflexus, 504 h, 320 g/ha, scored visually after 3 weeks, 100% = plants have died, 0% = like control plants): 90%
pest or weed control at 320 g/ha (ECHCG [4]; Echinochloa crus-galli, 504 h, 320 g/ha): 90%
pest or weed control at 80 g/ha (SETVI [7]): 90%
pest or weed control at 320 g/ha (SETVI [7]; dosage 320 g/ha): 90%
pest or weed control at 320 g/ha (STEME; Stellaria media, 504 h, dosage 320 g/ha): 90%
pest or weed control at 80 g/ha (DIGSA [10]; [25]): 90%
pest or weed control at 320 g/ha (DIGSA [10]; Digitaria sanguinalis, 504 h, dosage 320 g/ha): 90%
pest or weed control at 20 g/ha (ABUTH [11]; [26]): 80%
pest or weed control at 80 g/ha (ABUTH [11]; Abutilon theophrasti, 504 h, dosage 80 g/ha): 100%
